Where two headings read alike, the source gives them in different places.
Tests used:
Assay in all cases: Ras GTP binding domain inhibition assay (labeled GTP)
[1] = target: KRas G12C/Q61H double mutant (Homo sapiens (Human), UniProt P01116, G12C/Q61H); conditions: 20 μM compound
How it was run: (§1)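 Labelled-GTP binding: plate-captured His-KRas protein was pre-exposed to compound for 3 h at room temperature (single 20 μM point or dilution series, 1% DMSO, Tris pH 7.5/MgCl2/DTT buffer). Cy3- or Cy5-GTP was then added for 45 min. Washed wells were read for retained fluorescence to give inhibition or IC50.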

[2] = target: KRas G12D/Q61H double mutant (Homo sapiens (Human), UniProt P01116, G12D/Q61H); conditions: for inhibition at 20 µM: 20 μM compound
How it was run: as §1

KRas Q61H mutant = KRas Q61H mutant (Homo sapiens (Human), UniProt P01116, Q61H); conditions: 20 μM compound
How it was run: as §1

[3] = read-out: % Inhibition at 20 μM KRas G12C Q61H
[4] = read-out: % Inhibition at 20 μM KRas G12D Q61H
[5] = read-out: % Inhibition at 20 μM KRas Q61H
[6] = KRas G12C/Q61H double mutant, read-out: % Inhibition at 20 μM of K-Ras mutant and wild-type protein, KRas G12C Q61H
[7] = KRas G12D/Q61H double mutant, read-out: % Inhibition at 20 μM of K-Ras mutant and wild-type protein, KRas G12D Q61H
[8] = KRas Q61H, read-out: % Inhibition at 20 μM of K-Ras mutant and wild-type protein, KRas Q61H

Chain of KRas G12C/Q61H double mutant (P01116-2 other isoform, or with tags, fused parts or gaps G12C/Q61H): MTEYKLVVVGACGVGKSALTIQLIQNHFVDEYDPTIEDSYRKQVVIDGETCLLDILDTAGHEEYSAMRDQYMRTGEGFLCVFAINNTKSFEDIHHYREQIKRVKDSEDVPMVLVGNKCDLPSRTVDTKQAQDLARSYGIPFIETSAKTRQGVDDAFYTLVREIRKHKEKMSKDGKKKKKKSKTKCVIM
Chain of KRas G12D/Q61H double mutant (P01116-2 other isoform, or with tags, fused parts or gaps G12D/Q61H): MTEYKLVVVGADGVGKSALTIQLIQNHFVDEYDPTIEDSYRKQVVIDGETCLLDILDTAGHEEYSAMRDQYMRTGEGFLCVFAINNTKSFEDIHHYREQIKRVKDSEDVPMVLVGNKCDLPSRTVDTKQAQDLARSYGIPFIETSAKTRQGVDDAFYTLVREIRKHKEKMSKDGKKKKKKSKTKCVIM
Chain of KRas Q61H mutant (P01116-2 other isoform, or with tags, fused parts or gaps Q61H): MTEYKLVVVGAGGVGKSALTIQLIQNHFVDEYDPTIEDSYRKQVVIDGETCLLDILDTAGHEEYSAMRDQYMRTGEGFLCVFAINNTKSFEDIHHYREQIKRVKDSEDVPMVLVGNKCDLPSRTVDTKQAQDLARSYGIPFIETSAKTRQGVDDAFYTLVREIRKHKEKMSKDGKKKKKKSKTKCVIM

inhibition at 20 µM [1, 3] [%] | inhibition at 20 µM [2, 4] [%] | inhibition at 20 µM (KRas Q61H mutant; [5]) [%] | inhibition at 20 µM [1, 6] [%] | inhibition at 20 µM [2, 7] [%] | inhibition at 20 µM (KRas Q61H mutant; [8]) [%] | IC50 ([2]; serial dilution, read-out: KRas G12D Q61H (classes E-H, IC50)) [µM] | SMILES
51 to 75 | 25 to 50 | 51 to 75 | – | – | – | – | COc1ccc(N2CCN(C(=O)c3csc4c(O)nc(-c5ccccn5)nc34)CC2)c(OC)c1 [drawing 2759]
25 to 50 | 1 to 25 | 25 to 50 | – | – | – | – | N#Cc1cccc(CCNC(=O)c2csc3nc(-c4ccccn4)nc(N4CCOCC4)c23)c1 [drawing 2787]
25 to 50 | 25 to 50 | 25 to 50 | – | – | – | – | Oc1nc(-c2ccccn2)nc2c(-c3ccc(OC4CCOCC4)cc3)csc12 [drawing 2867]
1 to 25 | 1 to 25 | 1 to 25 | – | – | – | – | COCCCCNC(=O)c1csc2nc(-c3ccccn3)nc(N3CCS(=O)(=O)CC3)c12 [drawing 2826]
25 to 50 | 0 | 25 to 50 | – | – | – | – | O=C(c1csc2c(O)nc(-c3ccccn3)nc12)N1CCN(c2ccc(F)cc2)CC1 [drawing 2754]
51 to 75 | 25 to 50 | 76 to 100 | – | – | – | – | COc1ccccc1C1CN(C(=O)c2csc3c(O)nc(-c4ccccn4)nc23)CCN1 (stereo not shown) [drawing 2772]
1 to 25 | 1 to 25 | 1 to 25 | – | – | – | – | Nc1nc(-c2ccccn2)nc2c(-c3ccccc3Cl)csc12 [drawing 2835]
– | – | – | 1 to 25 | 1 to 25 | 1 to 25 | – | Oc1nc(-c2ccccn2)nc2c(-c3cncc(F)c3)csc12 [drawing 3464]
25 to 50 | 1 to 25 | 25 to 50 | – | – | – | – | Oc1nc(-c2ccccn2)nc2c(-c3ccnn3-c3ccccn3)csc12 [drawing 2904]
51 to 75 | 0 | 51 to 75 | – | – | – | – | N#Cc1ccc(N2CCN(C(=O)c3csc4c(O)nc(-c5ccccn5)nc34)CC2)cc1 [drawing 2756]
– | – | – | 1 to 25 | 0 | 1 to 25 | – | NC(=O)C1CCCN1C(=O)c1cccc(-c2cc3nc(N)nc(O)c3s2)c1 (stereo not shown) [drawing 3544]
– | – | – | 25 to 50 | 1 to 25 | 0 | – | COc1cnc(CNC(=O)c2csc3c(O)nc(-c4ccccn4)nc23)[nH]c1=O [drawing 3520]
– | – | – | 25 to 50 | 25 to 50 | 25 to 50 | – | Cc1sc2nc(-c3ccccn3)nc(N)c2c1Br [drawing 3484]
– | – | – | 1 to 25 | 0 | 0 | – | Nc1nc(O)c2sc(-c3cccc(C(=O)NCc4cccc(O)n4)c3)cc2n1 [drawing 3546]
– | – | – | 1 to 25 | 1 to 25 | 1 to 25 | – | COCCNc1nc(-c2ccccn2)nc(-c2cccc(OCCN(C)C)c2)c1Oc1ccccc1 [drawing 3529]
– | – | – | 1 to 25 | 1 to 25 | 25 to 50 | – | Oc1nc(-c2ccccn2)nc2c(-c3cncnc3)csc12 [drawing 3504]
– | – | – | 25 to 50 | 1 to 25 | 0 | – | COc1cnc(CNC(=O)c2sc3c(O)nc(-c4ccccn4)nc3c2C)[nH]c1=O [drawing 3524]
51 to 75 | 51 to 75 | 51 to 75 | – | – | – | – | N#Cc1ccc2c(c1)CCCC2C(=O)Nc1ccnc(-c2ccccn2)n1 (stereo not shown) [drawing 2855]

inhibition at 20 µM [1, 3] [%] | inhibition at 20 µM [2, 4] [%] | inhibition at 20 µM (KRas Q61H mutant; [5]) [%] | inhibition at 20 µM [1, 6] [%] | inhibition at 20 µM [2, 7] [%] | inhibition at 20 µM (KRas Q61H mutant; [8]) [%] | IC50 ([2]; serial dilution, read-out: KRas G12D Q61H (classes E-H, IC50)) [µM] | SMILES
– | – | – | 25 to 50 | 25 to 50 | 51 to 75 | – | CC(C)(C)c1sc2c(O)nc(-c3ccccn3)nc2c1Br [drawing 3554]
51 to 75 | 1 to 25 | 51 to 75 | – | – | – | – | COc1ccc(N2CCN(C(=O)c3csc4c(O)nc(-c5ccccn5)nc34)CC2)cc1O [drawing 2802]
51 to 75 | 51 to 75 | 51 to 75 | – | – | – | > 30 | COC(=O)c1cc2nc(-c3ccccn3)nc(O)c2s1 [drawing 2907]
– | – | – | 0 | 1 to 25 | 1 to 25 | – | COc1nc(-c2ccccn2)nc2c(C3CCCCC3)csc12 [drawing 3479]
– | – | – | 25 to 50 | 25 to 50 | 25 to 50 | – | Cc1sc2c(O)nc(-c3ccccn3)nc2c1C(=O)O [drawing 3482]
– | – | – | 1 to 25 | 25 to 50 | 25 to 50 | – | Oc1nc(-c2ccccn2)nc2c(-c3ccc(Cl)c(Cl)c3)csc12 [drawing 3463]
– | – | – | 1 to 25 | 1 to 25 | 1 to 25 | – | Cn1cnc(-c2nc(O)c3c(-c4ccccc4)c(-c4ccc(CNC(=O)OC(C)(C)C)cc4)sc3n2)c1 [drawing 3537]
25 to 50 | 51 to 75 | 25 to 50 | – | – | – | – | O=C(c1csc2c(O)nc(-c3ccccn3)nc12)N1CCN(c2ccc(F)cc2F)CC1 [drawing 2760]
25 to 50 | 1 to 25 | 25 to 50 | – | – | – | – | O=C(c1csc2c(O)nc(-c3ccccn3)nc12)N1CCN(Cc2ccc(O)cc2)CC1 [drawing 2764]
– | – | – | 76 to 100 | 51 to 75 | 51 to 75 | – | COC(=O)c1nc(-c2ccccn2)nc(O)c1O [drawing 3547]
25 to 50 | 1 to 25 | 25 to 50 | – | – | – | – | COc1nccc(CCNC(=O)c2csc3nc(-c4ccccn4)nc(N4CCOCC4)c23)n1 [drawing 2897]
1 to 25 | 1 to 25 | 1 to 25 | – | – | – | – | O=C(NCCc1ccnc(O)c1)c1csc2nc(-c3ccccn3)nc(N3CCOCC3)c12 [drawing 2783]
– | – | – | 1 to 25 | 0 | 0 | – | Nc1nc(O)c2sc(-c3cccc(C(=O)NCc4ncc[nH]4)c3)cc2n1 [drawing 3545]
51 to 75 | 25 to 50 | 51 to 75 | – | – | – | – | O=C(c1csc2c(O)nc(-c3ccccn3)nc12)N1CCNC(Cc2ccccc2)C1 (stereo not shown) [drawing 2778]
51 to 75 | 25 to 50 | 76 to 100 | – | – | – | – | O=C(c1csc2c(O)nc(-c3ccccn3)nc12)N1CCN(Cc2ccccc2)CC1 [drawing 2762]
51 to 75 | 51 to 75 | 51 to 75 | – | – | – | – | O=C(c1csc2c(O)nc(-c3ccccn3)nc12)N1CCNC(Cc2ccc(F)cc2)C1 (stereo not shown) [drawing 2831]
51 to 75 | 0 | 51 to 75 | – | – | – | – | O=C(NCCc1ccncc1)c1csc2nc(-c3ccccn3)nc(N3CCOCC3)c12 [drawing 2779]
1 to 25 | 25 to 50 | 25 to 50 | – | – | – | – | Oc1nc(-c2ccccn2)nc2c(-c3ccc(OC4CCOC4)cc3)csc12 (stereo not shown) [drawing 2862]

SMILES | inhibition at 20 µM [1, 3] [%] | inhibition at 20 µM [2, 4] [%] | inhibition at 20 µM (KRas Q61H mutant; [5]) [%] | inhibition at 20 µM [1, 6] [%] | inhibition at 20 µM [2, 7] [%] | inhibition at 20 µM (KRas Q61H mutant; [8]) [%] | IC50 ([2]; serial dilution, read-out: KRas G12D Q61H (classes E-H, IC50)) [µM]
Cc1cc2nc(-c3ccccn3)nc(O)c2s1 [drawing 3472] | – | – | – | 51 to 75 | 51 to 75 | 51 to 75 | –
Oc1nc(-c2ccccn2)nc2c(C3CCCCC3)csc12 [drawing 3511] | – | – | – | 25 to 50 | 25 to 50 | 51 to 75 | –
Oc1nc(-c2ccccn2)nc2c(-c3cncc(C(F)(F)F)c3)csc12 [drawing 3466] | – | – | – | 0 | 1 to 25 | 1 to 25 | –

— US10940139B2, “Compounds that interact with the Ras superfamily for the treatment of cancers, inflammatory diseases, rasopathies, and fibrotic disease” (Shy Therapeutics LLC, priority 2017, dated 2021)
